Data as given in patent US9540400B2, “Compounds as diacylglycerol acyltransferase inhibitors” (GlaxoSmithKline Intellectual Property (No. 2) Limited, priority 2011, dated 2017).

Key:
Human DGAT1 [1] = biological target: T1, Human DGAT1 (Homo sapiens, UniProt O75907); assay: hDGAT1 lipid extraction (LE) assay, inhibition of triacylglycerol product formation; assay type: biochemical; conditions: human DGAT1 microsomes from Sf9 cells; radiolabelled tridecanoylglycerol extraction
T1 construct: made in house; host or cells: Sf9 insect cells (baculovirus); microsomes
T1 sequence (O75907 1-488): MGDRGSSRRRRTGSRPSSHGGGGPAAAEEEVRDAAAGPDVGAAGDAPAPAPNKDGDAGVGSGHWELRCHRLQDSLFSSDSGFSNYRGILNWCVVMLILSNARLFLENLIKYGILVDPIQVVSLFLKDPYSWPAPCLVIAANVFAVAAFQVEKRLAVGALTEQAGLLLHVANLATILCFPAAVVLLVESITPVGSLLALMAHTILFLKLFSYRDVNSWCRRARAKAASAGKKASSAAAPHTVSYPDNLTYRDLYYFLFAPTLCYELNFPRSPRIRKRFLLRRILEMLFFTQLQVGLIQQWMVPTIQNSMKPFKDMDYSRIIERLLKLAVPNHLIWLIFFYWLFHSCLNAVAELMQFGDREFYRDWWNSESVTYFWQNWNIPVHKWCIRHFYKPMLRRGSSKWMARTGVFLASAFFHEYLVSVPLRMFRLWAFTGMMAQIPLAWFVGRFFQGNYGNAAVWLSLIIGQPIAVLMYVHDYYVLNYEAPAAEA
Protocol: (§1) Human DGAT1 was expressed in Sf9 insect cells using a baculovirus expression system. Microsomes were prepared and used as enzyme for in vitro inhibition testing in either of two formats measuring production of coenzyme A or tridecanoylglycerol product, respectively. All steps were performed at 21-23° C. All data for DGAT1 inhibition by test compounds were collected under conditions where product formation was linear with reaction time.
For inhibition of triacylglycerol product formation, 11 uL reactions were run in white Polyplate-384 (PerkinElmer6007300) starting with a 30 minute pre-reaction incubation of 5 uL of 2.2× enzyme and 1 uL of 100% DMSO containing test compound or control compound, {4-[4-(4-amino-7,7-dimethyl-7H-pyrimido[4,5-b][1,4]oxazin-6-yl)phenyl]cyclohexyl}acetic acid. Some assays were performed with inclusion of didecanoylglycerol in the pre-reaction incubation of test compounds and enzyme. Reactions were initiated after 30 minute pre-reaction incubation via addition of 5 uL of 2.2× substrate. Final reaction conditions consisted of 50 mM HEPES pH 7.5, 2 mM MgCl2, 1 mM CHAPS, 25 uM didecanoylglycerol, 0.5 uM decanoyl-CoA, 0.3 nCi/uL [^14C]-decanoyl-CoA or 0.5 nCi/uL [^3H]-decanoyl-CoA, 0.05-4 ug/mL microsomal protein, and 1% DMSO. Following 60 minute reaction incubation, reactions were stopped with 40 uL of 45% isopropanol and 50 mM sodium carbonate in water and mixed. Extraction of tridecanoylglycerol product was accomplished via addition of 30 uL Microscint-E (Perkin Elmer) and 2 hours of incubation (sealed). Plates were read on a Microbeta Microplate reader. Inhibition was normalized to controls containing DMSO or 10 uM {4-[4-(4-amino-7,7-dimethyl-7H-pyrimido[4,5-b][1,4]oxazin-6-yl)phenyl]cyclohexyl}acetic acid. IC50s were fitted using GraphPad Prism to a sigmoidal dose response.

Human DGAT1 [2] = biological target: T1, Human DGAT1; assay: hDGAT1 fluorescence (CPM) assay, inhibition of CoA product formation; assay type: biochemical; conditions: human DGAT1 microsomes from Sf9 cells
Protocol: as §1
For inhibition of CoA product formation, test compounds were prepared in 100% DMSO, diluted 100-fold into assay buffer, and 10 uL added to 96-well half-area plates (Greiner 675076). An equal volume (10 uL) of 3× enzyme in buffer was added and the components incubated for 30 minutes pre-reaction incubation to allow enzyme and test compounds to attain binding equilibrium. […] Some assays were performed with inclusion of didecanoylglycerol in the pre-reaction incubation of test compound and enzyme. DGAT reactions (30 uL) were initiated upon addition of 10 uL of 3× substrate solution. Final reaction conditions consisted of 20 mM HEPES pH 7.5, 2 mM MgCl2, 1 mM CHAPS, 50 uM didecanoylglycerol, 3 uM decanoyl-CoA, 1 ug/mL microsomal protein, and 1% DMSO. Following a 60 minute reaction incubation, reactions were stopped and CoA product derivatized with 30 uL of buffer containing 10 uM {4-[4-(4-amino-7,7-dimethyl-7H-pyrimido[4,5-b][1,4]oxazin-6-yl)phenyl]cyclohexyl}acetic acid and 50 uM 7-diethylamino-3-(4′-maleimidylphenyl)-4-methylcoumarin (CPM). Fluorescence was read using Envision reader at Ex 405 nm/Em 480 nm about 30 minutes after addition of final solution. Inhibition was normalized to controls containing DMSO or 10 uM {4-[4-(4-amino-7,7-dimethyl-7H-pyrimido[4,5-b][1,4]oxazin-6-yl)phenyl]cyclohexyl}acetic acid. IC50s were fitted using GraphPad Prism to a sigmoidal dose response.

Row | Molecule | IC50 (Human DGAT1 [1]) [nM] | IC50 (Human DGAT1 [2]) [nM]
1 | 4-amino-6-(6-fluoro-1-phenyl-1H-indol-5-yl)-5H,6H,7H,8H-pyrimido[5,4-f][1,4]oxazepin-5-one [Example 96] | 7.3 | 
2 | Nc1ncnc2c1C(=O)N(c1ccc3c(c1)CCC(=O)N3CC(=O)O)CCO2 [Example 3, 2-(6-{4-amino-5-oxo-5H,6H,7H,8H-pyrimido[5,4-f][1,4]oxazepin-6-yl}-2-oxo-1,2,3,4-tetrahydroquinolin-1-yl)acetic acid] |  | 372
3 | CN1CCc2cc(N3CCOc4ncnc(N)c4C3=O)ccc2C1=O [Example 6, 6-{4-amino-5-oxo-5H,6H,7H,8H-pyrimido[5,4-f][1,4]oxazepin-6-yl}-2-methyl-1,2,3,4-tetrahydroisoquinolin-1-one] |  | 85.8
4 | C=CCn1c2ccc(N3CCOc4ncnc(N)c4C3=O)cc2c(=O)n1Cc1ccccc1 [Example 10, 6-(1-Allyl-2-benzyl-3-oxo-2,3-dihydro-1H-indazol-5-yl)-4-amino-7,8-dihydropyrimido[5,4-f][1,4]oxazepin-5(6H)-one] |  | 42
5 | CCCn1[nH]c(=O)c2cc(N3CCOc4ncnc(N)c4C3=O)ccc21 [Example 11, 4-Amino-6-(3-oxo-1-propyl-2,3-dihydro-1H-indazol-5-yl)-7,8-dihydropyrimido[5,4-f][1,4]oxazepin-5(6H)-one] |  | 6.3
6 | CCCn1ccc2cc(N3CCOc4ncnc(N)c4C3=O)ccc21 [Example 12, 4-Amino-6-(1-propyl-1H-indol-5-yl)-7,8-dihydropyrimido[5,4-f][1,4]oxazepin-5(6H)-one] |  | 16.3
7 | Nc1ncnc2c1C(=O)N(c1cnc3c(ccn3CC(F)F)c1)CCO2 [Example 33, 4-Amino-6-(1-(2,2-difluoroethyl)-1H-pyrrolo[2,3-b]pyridin-5-yl)-7,8-dihydropyrimido[5,4-f][1,4]oxazepin-5(6H)-one] | 23.3 | 
8 | Nc1ncnc2c1C(=O)N(c1cnc3c(ccn3C3CC3)c1)CCO2 [Example 34, 4-Amino-6-(1-cyclopropyl-1H-pyrrolo[2,3-b]pyridin-5-yl)-7,8-dihydropyrimido[5,4-f][1,4]oxazepin-5(6H)-one] |  | 25.7
9 | Nc1ncnc2c1C(=O)N(c1cnc3c(ccn3CCO)c1)CCO2 [Example 59, 4-amino-6-[1-(2-hydroxyethyl)-1H-pyrrolo[2,3-b]pyridin-5-yl]-5H,6H,7H,8H-pyrimido[5,4-f][1,4]oxazepin-5-one] |  | 49.5
10 | CS(=O)(=O)n1ccc2cc(N3CCOc4ncnc(N)c4C3=O)ccc21 [Example 60, 4-amino-6-(1-methanesulfonyl-1H-indol-5-yl)-5H,6H,7H,8H-pyrimido[5,4-f][1,4]oxazepin-5-one] | 14.8 | 
11 | CCCn1cc(C(=O)C(F)(F)F)c2cc(N3CCOc4ncnc(N)c4C3=O)ccc21 [Example 63, 4-Amino-6-(1-propyl-3-(2,2,2-trifluoroacetyl)-1H-indol-5-yl)-7,8-dihydropyrimido[5,4-f][1,4]oxazepin-5(6H)-one] | 2.3 | 
12 | CCCn1cc(C(C)(OC)C(F)(F)F)c2cc(N3CCOc4ncnc(N)c4C3=O)ccc21 (centres unmarked) [Example 64, 4-amino-6-[1-propyl-3-(1,1,1-trifluoro-2-methoxypropan-2-yl)-1H-indol-5-yl]-5H,6H,7H,8H-pyrimido[5,4-f][1,4]oxazepin-5-one] | 8.8 | 
13 | Nc1ncnc2c1C(=O)N(c1ccc3c(ccn3-c3ccccc3)c1)CCO2 [Example 65, 4-Amino-6-(1-phenyl-1H-indol-5-yl)-7,8-dihydropyrimido[5,4-f][1,4]oxazepin-5(6H)-one] | 3.9 | 
14 | Nc1ncnc2c1C(=O)N(c1cnc3c(ccn3-c3ccc(C(F)(F)F)cc3)c1)CCO2 [Example 66, 4-Amino-6-(1-(4-(trifluoromethyl)phenyl)-1H-pyrrolo[2,3-b]pyridin-5-yl)-7,8-dihydropyrimido[5,4-f][1,4]oxazepin-5(6H)-one] |  | 42.5
15 | Nc1ncnc2c1C(=O)N(c1cnc3c(ccn3-c3cccc(Cl)c3)c1)CCO2 [Example 68, 4-amino-6-[1-(3-chlorophenyl)-1H-pyrrolo[2,3-b]pyridin-5-yl]-5H,6H,7H,8H-pyrimido[5,4-f][1,4]oxazepin-5-one] |  | 2.8
16 | Nc1ncnc2c1C(=O)N(c1cnc3c(ccn3-c3ccccc3)c1)CCO2 [Example 72, 4-amino-6-{1-phenyl-1H-pyrrolo[2,3-b]pyridin-5-yl}-5H,6H,7H,8H-pyrimido[5,4-f][1,4]oxazepin-5-one] | 9.3 | 
17 | Nc1ncnc2c1C(=O)N(c1ccc3c(ccn3-c3ccc(F)c(F)c3)c1)CCO2 [Example 74, 4-amino-6-[1-(3,4-difluorophenyl)-1H-indol-5-yl]-5H,6H,7H,8H-pyrimido[5,4-f][1,4]oxazepin-5-one] | 4.5 | 
18 | Nc1ncnc2c1C(=O)N(c1ccc3c(ccn3-c3ccccc3F)c1)CCO2 [Example 76, 4-amino-6-[1-(2-fluorophenyl)-1H-indol-5-yl]-5H,6H,7H,8H-pyrimido[5,4-f][1,4]oxazepin-5-one] |  | 2.5
19 | Nc1ncnc2c1C(=O)N(c1ccc3c(ccn3-c3ccc(C(F)(F)F)cc3)c1)CCO2 [Example 78, 4-amino-6-{1-[4-(trifluoromethyl)phenyl]-1H-indol-5-yl}-5H,6H,7H,8H-pyrimido[5,4-f][1,4]oxazepin-5-one] |  | 7.3
20 | Nc1ncnc2c1C(=O)N(c1ccc3c(ccn3-c3cccc(C(F)(F)F)c3)c1)CCO2 [Example 80, 4-amino-6-{1-[3-(trifluoromethyl)phenyl]-1H-indol-5-yl}-5H,6H,7H,8H-pyrimido[5,4-f][1,4]oxazepin-5-one] | 3.6 | 
21 | Nc1ncnc2c1C(=O)N(c1cnc3c(ccn3-c3cccc(C(F)(F)F)c3)c1)CCO2 [Example 81, 4-amino-6-{1-[3-(trifluoromethyl)phenyl]-1H-pyrrolo[2,3-b]pyridin-5-yl}-5H,6H,7H,8H-pyrimido[5,4-f][1,4]oxazepin-5-one] | 2.1 | 
22 | Nc1ncnc2c1C(=O)N(c1ccc3c(ccn3-c3nccs3)c1)CCO2 [Example 82, 4-Amino-6-(1-(thiazol-2-yl)-1H-indol-5-yl)-7,8-dihydropyrimido[5,4-f][1,4]oxazepin-5(6H)-one] |  | 20.5
23 | Nc1ncnc2c1C(=O)N(c1ccc3c(ccn3-c3ccc(C(F)(F)F)nc3)c1)CCO2 [Example 83, 4-Amino-6-(1-(6-(trifluoromethyl)pyridin-3-yl)-1H-indol-5-yl)-7,8-dihydropyrimido[5,4-f][1,4]oxazepin-5(6H)-one] |  | 40
24 | Nc1ncnc2c1C(=O)N(c1ccc3c(ccn3-c3cnccn3)c1)CCO2 [Example 87, 4-amino-6-[1-(pyrazin-2-yl)-1H-indol-5-yl]-5H,6H,7H,8H-pyrimido[5,4-f][1,4]oxazepin-5-one] |  | 55.1
25 | CC(C)c1cn(-c2ccccc2)c2ccc(N3CCOc4ncnc(N)c4C3=O)cc12 [Example 94, 4-Amino-6-(3-isopropyl-1-phenyl-1H-indol-5-yl)-7,8-dihydropyrimido[5,4-f][1,4]oxazepin-5(6H)-one] |  | 873
26 | CCCn1c(-c2ccccc2)cc2cc(N3CCOc4ncnc(N)c4C3=O)ccc21 [Example 95, 4-Amino-6-(2-phenyl-1-propyl-1H-indol-5-yl)-7,8-dihydropyrimido[5,4-f][1,4]oxazepin-5(6H)-one] |  | 10.1
